Measurements reported in ChEMBL document CHEMBL6087414, “Discovery of 4-(4-(3-(1-(2-(piperidin-1-yl)ethyl)-1H-benzo[d]imidazole-2-yl)isoxazol-5-yl)phenyl)morpholine as a novel c-Myc inhibitor against lung cancer in vitro and in vivo” (Eur J Med Chem, 2025).
Calls of active or inactive are those of the source. No cut-off for these calls is given here.

How the values were obtained:
[1] = molecular target: Myc proto-oncogene protein (Homo sapiens) (UniProt P01106); test: Inhibition of c-Myc transcriptional activity (unknown origin) at 10 uM by luciferase reporter gene assay
[2] = system: A549; test: Induction of apoptosis in human A549 cells assessed as necrotic cells at 2.5 uM incubated for 48 hrs by Annexin V-FITC/PI staining based flow cytometry (reference value: 1.41 %); assay type: functional
[3] = system: A549; test: Induction of apoptosis in human A549 cells assessed as increase in BAD level at 2.5 to 10 uM incubated for 48 hrs by Western blot analysis; assay type: functional, cell-based; conditions: dose 2.5-10 µM
[4] = Toxicity in C57BL/6 mouse allografted with mouse Lewis lung carcinoma cells assessed as pathological damage in kidneys at 20 mg/kg, ip administered every two days for 28 days by H and E staining based analysis; assay type: organism-based, Kidney; conditions: in vivo, 672 h, time 28 day
[5] = molecular target: Myc proto-oncogene protein (Homo sapiens) (UniProt P01106); test: Inhibition of c-Myc in human A549 cells by Western blot analysis; assay type: cell-based; conditions: dose <= 10.0 µM
[6] = molecular target: c-Myc/c-Max (Homo sapiens) (UniProt P01106+P61244); test: Disruption of c-Myc-Max interaction in human A549 cells assessed as decrease in at 10 uM incubated for 48 hrs by immunoprecipitation method; assay type: cell-based
[7] = system: Lewis lung carcinoma; test: In vivo inhibition of c-Myc in mouse Lewis lung carcinoma cells allografted in C57BL/6 mouse at 20 to 40 mg/kg, ip administered every two days for 28 days by Western blot analysis; assay type: functional, organism-based; conditions: dose 20-40 mg/kg, time 28.0 day
[8] = Toxicity in C57BL/6 mouse allografted with mouse Lewis lung carcinoma cells assessed as pathological damage in spleen at 20 mg/kg, ip administered every two days for 28 days by H and E staining based analysis; assay type: organism-based; conditions: in vivo, 672 h, time 28 day
[9] = system: Lewis lung carcinoma cell line; test: Antitumor activity against mouse Lewis lung carcinoma cells allografted in C57BL/6 mouse at 20 mg/kg, ip administered every two days for 28 days relative to control; assay type: functional; conditions: 672 h, time 28 day, read-out: TGI
[10] = system: A549; test: Effect on c-Myc mRNA expression in human A549 cells at 10 uM by Q-PCR analysis; assay type: functional, cell-based
[11] = system: A549; test: Induction of apoptosis in human A549 cells at 5 to 15 uM incubated for 48 hrs by Annexin V-FITC/PI staining based flow cytometry relative to control; assay type: functional; conditions: dose 5-15 µM
[12] = system: Lewis lung carcinoma cell line; test: Antitumor activity against mouse Lewis lung carcinoma cells allografted in C57BL/6 mouse at 40 mg/kg, ip administered every two days for 28 days relative to control; assay type: functional; conditions: 672 h, time 28 day, read-out: TGI
[13] = system: NCI-H1299; test: Cytotoxicity against human NCI-H1299 cells assessed as inhibition of cell viability incubated for 48 hrs by CCK8 assay; assay type: functional, cell-based; conditions: NCI-H1299, 48 h
[14] = Toxicity in C57BL/6 mouse allografted with mouse Lewis lung carcinoma cells assessed as pathological damage in heart at 20 mg/kg, ip administered every two days for 28 days by H and E staining based analysis; assay type: organism-based; conditions: in vivo, 672 h, time 28 day
[15] = system: A549; test: Induction of apoptosis in human A549 cells assessed as late apoptotic cells at 2.5 uM incubated for 48 hrs by Annexin V-FITC/PI staining based flow cytometry (reference value: 5.79 %); assay type: functional
[16] = system: A549; test: Induction of apoptosis in human A549 cells assessed as viable cells at 10 uM incubated for 48 hrs by Annexin V-FITC/PI staining based flow cytometry (reference value: 87.8 %); assay type: functional; conditions: read-out: Activity
[17] = Toxicity in C57BL/6 mouse allografted with mouse Lewis lung carcinoma cells assessed as body weight loss at 20 to 40 mg/kg, ip administered every two days for 28 days; assay type: organism-based; conditions: in vivo, 672 h, dose 20-40 mg/kg, time 28 day
[18] = molecular target: Myc proto-oncogene protein (Homo sapiens) (UniProt P01106); test: Inhibition of c-Myc in human A549 cells at 10 uM incubated for 24 hrs in presence of MG132 by Western blot analysis; assay type: cell-based
[19] = system: A549; test: Cytotoxicity against human A549 cells assessed as inhibition of cell viability incubated for 48 hrs by CCK8 assay; assay type: functional, cell-based; conditions: A549, 48 h
[20] = Cytotoxicity against human BEAS-2B cells assessed as cell viability upto 20 uM incubated for 48 hrs by CCK8 assay relative to control; assay type: toxicity, cell-based; conditions: read-out: Activity
[21] = system: A549; test: Induction of apoptosis in human A549 cells assessed as early apoptotic cells at 5 uM incubated for 48 hrs by Annexin V-FITC/PI staining based flow cytometry (reference value: 5.02 %); assay type: functional
[22] = molecular target: Myc proto-oncogene protein (Homo sapiens) (UniProt P01106); test: Inhibition of c-Myc in human A549 cells assessed as decrease in half life at 10 uM pretreated for 12 hrs followed by CHX treatment for 1 to 2 hrs by Western blot analysis; assay type: cell-based; conditions: time 13-14 hrs
[23] = system: A549; test: Induction of apoptosis in human A549 cells assessed as necrotic cells at 10 uM incubated for 48 hrs by Annexin V-FITC/PI staining based flow cytometry (reference value: 1.41 %); assay type: functional
[24] = system: A549; test: Induction of apoptosis in human A549 cells assessed as decrease in Bcl-2 level at 2.5 to 10 uM incubated for 48 hrs by Western blot analysis; assay type: functional, cell-based; conditions: dose 2.5-10 µM
[25] = system: A549; test: Induction of apoptosis in human A549 cells assessed as late apoptotic cells at 5 uM incubated for 48 hrs by Annexin V-FITC/PI staining based flow cytometry (reference value: 5.79 %); assay type: functional
[26] = system: A549; test: Induction of apoptosis in human A549 cells incubated for 48 hrs by Annexin V-FITC/PI staining based flow cytometry; assay type: functional, cell-based; conditions: dose 5-15 µM
[27] = system: A549; test: Induction of apoptosis in human A549 cells assessed as viable cells at 5 uM incubated for 48 hrs by Annexin V-FITC/PI staining based flow cytometry (reference value: 87.8 %); assay type: functional; conditions: read-out: Activity
[28] = molecular target: Myc proto-oncogene protein (Homo sapiens) (UniProt P01106); test: Inhibition of c-Myc in human NCI-H1299 cells by Western blot analysis; assay type: cell-based; conditions: dose <= 10.0 µM
[29] = Toxicity in C57BL/6 mouse allografted with mouse Lewis lung carcinoma cells assessed as discernible signs of toxicity at 20 to 40 mg/kg, ip administered every two days for 28 days; assay type: organism-based; conditions: in vivo, 672 h, dose 20-40 mg/kg, time 28 day
[30] = system: A549; test: Induction of apoptosis in human A549 cells assessed as early apoptotic cells at 2.5 uM incubated for 48 hrs by Annexin V-FITC/PI staining based flow cytometry (reference value: 5.02 %); assay type: functional
[31] = system: A549; test: Induction of apoptosis in human A549 cells assessed as early apoptotic cells at 10 uM incubated for 48 hrs by Annexin V-FITC/PI staining based flow cytometry (reference value: 5.02 %); assay type: functional
[32] = system: A549; test: Induction of apoptosis in human A549 cells assessed as viable cells at 2.5 uM incubated for 48 hrs by Annexin V-FITC/PI staining based flow cytometry (reference value: 87.8 %); assay type: functional; conditions: read-out: Activity
[33] = system: A549; test: Induction of apoptosis in human A549 cells assessed as activation of caspase-9 cleavage at 2.5 to 10 uM incubated for 48 hrs by Western blot analysis; assay type: functional, cell-based; conditions: dose 2.5-10 µM
[34] = system: A549; test: Induction of apoptosis in human A549 cells assessed as increase in BAX level at 2.5 to 10 uM incubated for 48 hrs by Western blot analysis; assay type: functional, cell-based; conditions: dose 2.5-10 µM
[35] = system: Lewis lung carcinoma cell line; test: Antitumor activity against mouse Lewis lung carcinoma cells allografted in C57BL/6 mouse assessed as inhibition of tumor growth administered intraperitoneally every two days for 28 days; assay type: functional, cell-based; conditions: dose 20-40 mg/kg, route ip, time 28.0 day
[36] = Toxicity in C57BL/6 mouse allografted with mouse Lewis lung carcinoma cells assessed as pathological damage in liver at 20 mg/kg, ip administered every two days for 28 days by H and E staining based analysis; assay type: organism-based; conditions: in vivo, 672 h, time 28 day
[37] = system: A549; test: Induction of apoptosis in human A549 cells assessed as late apoptotic cells at 10 uM incubated for 48 hrs by Annexin V-FITC/PI staining based flow cytometry (reference value: 5.79 %); assay type: functional
[38] = system: A549; test: Induction of apoptosis in human A549 cells assessed as necrotic cells at 5 uM incubated for 48 hrs by Annexin V-FITC/PI staining based flow cytometry (reference value: 1.41 %); assay type: functional
[39] = system: A549; test: Induction of apoptosis in human A549 cells assessed as activation of caspase-3 cleavage at 2.5 to 10 uM incubated for 48 hrs by Western blot analysis; assay type: functional, cell-based; conditions: dose 2.5-10 µM

Chain of Myc proto-oncogene protein (Homo sapiens) (P01106 whole entry): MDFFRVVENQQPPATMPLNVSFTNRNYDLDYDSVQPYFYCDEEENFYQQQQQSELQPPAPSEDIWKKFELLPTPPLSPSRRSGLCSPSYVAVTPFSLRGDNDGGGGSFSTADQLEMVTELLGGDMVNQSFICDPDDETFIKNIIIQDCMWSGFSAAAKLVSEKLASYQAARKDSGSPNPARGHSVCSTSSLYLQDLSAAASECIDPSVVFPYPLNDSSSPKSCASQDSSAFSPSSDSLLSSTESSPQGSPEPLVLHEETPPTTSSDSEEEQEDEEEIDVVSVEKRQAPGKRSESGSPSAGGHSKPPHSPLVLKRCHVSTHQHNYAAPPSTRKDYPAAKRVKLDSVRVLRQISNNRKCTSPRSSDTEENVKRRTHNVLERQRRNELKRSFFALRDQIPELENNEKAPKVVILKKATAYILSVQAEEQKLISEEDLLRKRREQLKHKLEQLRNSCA
Chain of c-Myc/c-Max (Homo sapiens) (P01106 whole entry): as above
Chain of c-Myc/c-Max (Homo sapiens) (P61244 2-160 partner limits assumed): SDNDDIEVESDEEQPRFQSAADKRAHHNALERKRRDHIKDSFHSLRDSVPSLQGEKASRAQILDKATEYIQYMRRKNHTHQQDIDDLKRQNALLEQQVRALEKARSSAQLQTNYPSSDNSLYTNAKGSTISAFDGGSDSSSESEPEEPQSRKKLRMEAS

c1ccc2c(c1)nc(-c1cc(-c3ccc(N4CCOCC4)cc3)on1)n2CCN1CCCCC1
inhibition [1]: Active | Activity [2]: 2.76% | Activity [3]: Active | Activity [4]: Non-toxic | inhibition [5]: Dose-dependent-effect | Activity [6]: Active | inhibition [7]: Active | Activity [8]: Non-toxic | inhibition in vivo at 20 mg/kg [9]: 59.9% | Activity [10]: inactive | Activity [11]: 27% | inhibition in vivo at 40 mg/kg [12]: 76.4% | IC50 [13]: 7.86 µM | Activity [14]: Non-toxic | Activity [15]: 18.7% | viability at 10 µM [16]: 26.1% | Activity [17]: Non-toxic | inhibition [18]: inactive | IC50 [19]: 4.08 µM | viability at 48 h, 20 µM [20]: > 90% | Activity [21]: 9.5% | inhibition [22]: Active | Activity [23]: 3.05% | Activity [24]: Active | Activity [25]: 19.6% | Activity [26]: Dose-dependent-effect | viability at 5 µM [27]: 68.3% | inhibition [28]: Dose-dependent-effect | Activity [29]: Non-toxic | Activity [30]: 8.46% | Activity [31]: 37.8% | viability at 2.5 µM [32]: 70.1% | Activity [33]: Active | Activity [34]: Active | inhibition [35]: Active | Activity [36]: Non-toxic | Activity [37]: 33% | Activity [38]: 2.63% | Activity [39]: Active
